Measurements as given in patent publication US12016336B2 (priority 2020, dated 2024).
Where a name gives a salt, the structure may show the parent alone. Read-outs that look alike come from different tables or passages of the source.

Tests used:
people = conditions: exposure in the air; cited from earlier work
[1] = assay type: physicochemical
[2] = assay type: physicochemical; remark: listed apart in the source
[3] = room temperature, 90% H2O/D2O
Solubility in water = assay type: physicochemical
[4] = assay type: physicochemical; remark: listed apart in the source
[5] = test system: radish, peas, and lettuce plants; conditions: Carter et al., cited from earlier work
corn = assay: Growth of corn in pots exposed to dibutyldithiophosphate (Example 20); assay type: in vivo; conditions: 4 weeks
Method: Corn was planted in 6″ TEKU pots. The pots were packed finger tight with potting mix #4 from Beautiful Land Products. The corn seeds were planted approximately 1.5 inches deep. Fifty seeds of corn were planted for every loading of dibutyldithiophosphate ammonium salt. After the seeds were added to the soil the dibutyldithiophosphate ammonium salt was added as a fully dissolved aqueous solution. Tap water (500 mL) was added to a measured amount of the salt to yield desired amount in 10 mL After mixing well for 10 minutes, the aqueous solution was added to each plant via syringe (10 mL) immediately around and on the seed. After adding the salt, the plants were moved outside in full sunlight until harvest. The corn plants were watered daily.
The corn was harvested after 4 weeks. Plant height was taken by straightening the corn plant out by the leaves and measuring from the base of the shoot to the longest point on the leaf. After removing the roots, the weight of the shoot and leaves was measured using a balance.
Statistical analysis was performed using IBM SPSS Statistics 25. Non-parametric Kruskal-Wallis test was performed to determine significance. Data represented are mean±standard error with ** indicating α<0.05 and * indicating α<0.1.

soybeans = assay: Field trial: harvest yield of soybeans (Example 27); assay type: in vivo; conditions: 2 kg per acre, side dressing, versus not exposed
Text: All essential plant nurtients (N, P, K, and S) were applied in non-limiting amounts. Prior to planting soybeans, the fields were fertilized with 60 lb acre of P2O5, 80 lb per acre of K20, and 20 lb per acre of sulfur. The soybean seeds were a 2.8-3.2 relative maturity planted at 120,000 to 140,000 seeds per acre. All field management were designed to effectively control weed and insect pests to optimize soybean growth and yield. The soybeans were planted and either 0, 0.5, 1.0, or 2.0 kg per acre of dibutyldithiophosphate was applied as a side dressing to the soybean plants. The dibutyldithiophosphate was dissolved in water and applied. The harvest weight was determined for each plot and corrected for slight differences in moisture content.

[6] = water buffered at pH 6.7, FIG. 4

Question: Which “Level immediately dangerous to life and health” value (people) does the source give for S [Example H2S, hydrogen sulfide] here?
Answer: The value was 100 ppm.

Question: Which “Rate of first-step of hydrolysis (85° C.)” value ([1]; 85° C., 90% H2O/D2O) does the source give for CCCCOP(=S)(S)OCCCC [Example 1, Dibutyldithiophosphate Ammonium Salt] here?
Answer: The value was 0.00096 h⁻¹.

Question: And the “Time to complete hydrolysis” value ([1]; 85° C., 90% H2O/D2O, to phosphoric acid only)?
Answer: The value was 180 days.

Question: And the “Hydrolysis slower than the compound of Example 2” value ([1]; 85° C., versus Example 2)?
Answer: Its value is 3.5 ×.

Question: And the “Hydrolysis slower than the dithiophosphate of Example 3” value ([1]; 85° C., versus Example 3)?
Answer: The value was 7.4 ×.

Question: And the “Hydrolysis slower than the dithiophosphate of Example 4” value ([1]; 85° C., versus Example 4)?
Answer: The value was 1.4 ×.

Question: What about the “Release of H2S (rank among the dithiophosphates)” value [2, 6] of the same molecule?
Answer: Its value is “lowest”.

Question: And the “Percent Degradation” value ([3]; 30 days, 31P NMR)?
Answer: Its value is <3%.

Question: Which “Solubility in water of the potassium and triethylamine salts” value (Solubility in water) does the source give for CC1(C)[C@@H]2CC[C@]1(C)[C@H](OP(=S)(S)O[C@@H]1C[C@H]3CC[C@@]1(C)C3(C)C)C2 [Example 7] here?
Answer: Its value is “insoluble in water”.

Question: Which “Rate of hydrolysis slower at room temperature than at 85° C.” value ([1]; room temperature versus 85° C.) does the source give for CC(C)(C)OP(=S)([S-])OC(C)(C)C.[Na+] [Example 8, Di(Tert-Butanol)Dithiophosphate Sodium Salt] here?
Answer: Its value is 2,600 ×.

Question: What about the “Rate of first-step of hydrolysis” value ([1]; room temperature, 90% H2O/D2O) of the same molecule?
Answer: Its value is 0.0051 h⁻¹.

Question: What about the “ΔΔG^‡” value ([4]; 25° C. versus 85° C.) of the same molecule?
Answer: The value was 0.526 kcal/mol.

Question: What about the “ΔH^‡” value ([4]; rate constants measured from 25 to 85° C.) of the same molecule?
Answer: The value was 27.84 kcal/mol.

Question: What about the “Release of H2S (rank among the dithiophosphates)” value [2, 6] of the same molecule?
Answer: The value was “highest”.

Question: What about the “Percent degraded at day 12” value ([3]; day 12) of the same molecule?
Answer: The value was 62%.

Question: And the “Percent degraded at day 20” value ([3]; day 20)?
Answer: Its value is 88%.

Question: Which “Growth of radish, peas, and lettuce plants” value [5] does the source give for C1COCCN1.COc1ccc(P(=S)(S)N2CCOCC2)cc1 (stereo not drawn) [GYY-4137] here?
Answer: The value was “increased the growth”.

Question: What about the “Harvest yield of radishes” value ([5]; milligram loadings) of the same molecule?
Answer: Its value is “doubled”.

Question: Which “Solubility in water of the potassium and triethylamine salts” value (Solubility in water) does the source give for S=P(S)(Sc1ccccc1)Sc1ccccc1 [Example 13] here?
Answer: Its value is “insoluble in water”.

Question: With S=P1(S)OCCS1 (stereo not drawn) [Example 14] as the molecule, how does the “Release of H2S (rank among the dithiophosphates)” value ([2]; pH 6.7) read?
Answer: The value was “highest”.

Question: For CC(C)[C@@H]1CC[C@@H](C)C[C@H]1OP(=S)([S-])O[C@@H]1C[C@H](C)CC[C@H]1C(C)C.[K+] [Example 5], which “Release of H2S at 5 mM” value ([2]; pH 6.7) is on record?
Answer: Its value is “released H2S”.

Question: What about the “Solubility in water at 5 mM” value (Solubility in water; concentration of 5 mM) of the same molecule?
Answer: The value was “mostly insoluble in water”.

Question: And the “Solubility in water of the potassium and triethylamine salts” value (Solubility in water)?
Answer: The value was “insoluble in water”.

Question: Which “Increase in weight of the corn plants” value (corn; 1 mg added to the soil adjacent to the seed, versus plants grown without) does the source give for CCCCOP(=S)(S)OCCCC [dibutyldithiophosphate] here?
Answer: Its value is 39%.

Question: And the “Weight of the corn plants (significance)” value (corn; 1, 10, 50, and 75 mg loadings)?
Answer: Its value is “statistically significant improvements”.

Question: And the “Heights of the corn plants” value (corn; all loadings)?
Answer: The value was “Little statistically significant difference”.

Question: And the “Increase in harvest yield of soybeans” value (soybeans)?
Answer: Its value is 4.4%.
